Laboratory results taken from patent US8476197B2, “Aminopropenoates as fungicides” (priority 2009, dated 2013).
Marks after values point to notes of the source that are not given here.

details: pH 2.7

| SMILES | Log P |
| --- | --- |
| COC(=O)C(C#N)=C(NCc1nc(C)cs1)c1sc(C)nc1C(F)(F)F [Compound 181] | 2.58^[a] |
| COC(=O)C(C#N)=C(NCc1ncc(C)s1)c1sc(C)nc1C(F)(F)F [Compound 183] | 2.63^[a] |
| COC(=O)C(C#N)=C(NCc1nc2ccccc2s1)c1sc(C)nc1C(F)(F)F [Compound 184] | 3.15^[a] |
| COC(=O)C(C#N)=C(NCc1nc(C(F)(F)F)cs1)c1sc(C)nc1C(F)(F)F [Compound 185] | 3.06^[a] |
| CCOC(=O)C(C#N)=C(NC(C)c1nc(C)cs1)c1cn(C)nc1C(F)F (stereo not shown) [Compound 188] | 2.65^[a] |
| CCOC(=O)C(C#N)=C(NC(C)c1ncc(C)s1)c1cn(C)nc1C(F)F (stereo not shown) [Compound 190] | 2.68^[a] |
| CCOC(=O)C(C#N)=C(NCc1nc(C(F)(F)F)cs1)c1cn(C)nc1C(F)F [Compound 192] | 2.78^[a] |
| CCOC(=O)C(C#N)=C(NC(C)C1CCCO1)c1sc(C)nc1C(F)(F)F (stereo not shown) [Compound 193] | 3.29^[a] |
| CCOC(=O)C(C#N)=C(NC(C)c1nc(C)cs1)c1sc(C)nc1C(F)(F)F (stereo not shown) [Compound 194] | 3.42^[a] |
| CCOC(=O)C(C#N)=C(NC(C)c1ncc(C)s1)c1sc(C)nc1C(F)(F)F (stereo not shown) [Compound 196] | 3.46^[a] |
| CCOC(=O)C(C#N)=C(NCc1nc(C(F)(F)F)cs1)c1sc(C)nc1C(F)(F)F [Compound 198] | 3.35^[a] |
| CCOC(=O)C(C#N)=C(NC(C)C1CCCO1)c1cn(C)nc1C(F)F (stereo not shown) [Compound 199] | 2.58^[a] |
| COC(=O)C(C#N)=C(NCc1ccc(F)cn1)c1sc(C)nc1C(F)(F)F [Compound 202] | 2.67^[a] |
| C=CCOC(=O)C(C#N)=C(NC(C)c1nccs1)c1sccc1Br (stereo not shown) [Compound 205] | 3.31^[a] |
| CCOC(=O)C(C#N)=C(NC(C)c1cccs1)c1sccc1C(F)(F)F (stereo not shown) [Compound 209] | 3.99^[a] |
| COC(=O)C(C#N)=C(NC(C)c1cccs1)c1sc(C)nc1C(F)(F)F (stereo not shown) [Compound 210] | 3.46^[a] |
| CCOC(=O)C(C#N)=C(NC(C)c1cccs1)c1sccc1Br (stereo not shown) [Compound 211] | 3.92^[a] |
| CCOC(=O)C(C#N)=C(NC(C)c1cccs1)c1sc(C)nc1C(F)(F)F (stereo not shown) [Compound 212] | 3.8^[a] |
| CCOC(=O)C(C#N)=C(NC(C)c1cccs1)c1cn(C)nc1C(F)F (stereo not shown) [Compound 213] | 3.02^[a] |
| CC(C)NC(=O)C(C#N)=C(NC(C)c1nccs1)c1sccc1Br (stereo not shown) [Compound 214] | 3.11^[a] |
| CCOC(=O)C(C#N)=C(NC(C)c1sc(C)nc1C)c1sccc1Br (stereo not shown) [Compound 215] | 3.23^[a] |
| CCOC(=O)C(C#N)=C(NC(C)c1ncc(C)s1)c1sccc1C(F)(F)F (stereo not shown) [Compound 216] | 3.67^[a] |
| CCOC(=O)C(C#N)=C(NCc1ncc(C)s1)c1sccc1C(F)(F)F [Compound 217] | 3.19^[a] |

| SMILES | Log P |
| --- | --- |
| CCOC(=O)C(C#N)=C(NC(C)c1sc(C)nc1C)c1sc(C)nc1C(F)(F)F (stereo not shown) [Compound 218] | 3.13^[a] |
| CCOC(=O)C(C#N)=C(NCc1ncc(C)s1)c1sc(C)nc1C(F)(F)F [Compound 219] | 3^[a] |
| CCOC(=O)C(C#N)=C(NCc1nccs1)c1c(C(F)F)nn(C)c1Cl [Compound 236] | 2.4^[a] |
| CCOC(=O)C(C#N)=C(NCc1ncc(C)s1)c1ccsc1Br [Compound 247] | 3^[a] |
| CCOC(=O)C(C#N)=C(NCc1nccs1)c1ccncc1Cl [Compound 259] | 2.11^[a] |
| CCOC(=O)C(C#N)=C(NC1(c2ccccn2)CC1)c1cccnc1Cl [Compound 284] | 2.56^[a] |
| C=CCOC(=O)C(C#N)=C(NCc1nccs1)c1cn(C)nc1C(F)F [Compound 306] | 2.25^[a] |
| CCOC(=O)C(C#N)=C(NC(C)c1nccs1)c1cn(C)nc1C(C)(F)F (stereo not shown) [Compound 312] | 2.62^[a] |
| CCOC(=O)C(C#N)=C(NC(C)c1ccccn1)c1c(C(F)(F)F)nn(C)c1Cl (stereo not shown) [Compound 314] | 3.24^[a] |
| CCOC(=O)C(C#N)=C(NC(C)c1ccccn1)c1cn(C)nc1C(C)(F)F (stereo not shown) [Compound 315] | 2.57^[a] |
| CCOC(=O)C(C#N)=C(NC(C)c1ccccn1)c1c(C(F)F)nn(C)c1F (stereo not shown) [Compound 316] | 2.73^[a] |
| C#CCNC(=O)C(C#N)=C(NC(C)c1nccs1)c1cccnc1Cl (stereo not shown) [Compound 317] | 2.03^[a] |
| CCOC(=O)C(C#N)=C(NC(C)c1nccs1)c1ccncc1F (stereo not shown) [Compound 318] | 2.41^[a] |
| CCOC(=O)C(C#N)=C(NC(C)c1cnn(C)c1)c1cccnc1Cl (stereo not shown) [Compound 321] | 2.2^[a] |
| CCOC(=O)C(C#N)=C(NC(C)c1csc(Cl)n1)c1cccnc1Cl (stereo not shown) [Compound 322] | 3.3^[a] |
| CC(NC(=C(C#N)C(=O)NCC(F)(F)F)c1cccnc1Cl)c1nccs1 (stereo not shown) [Compound 324] | 2.44^[a] |
| CCOC(=O)C(C#N)=C(NC(C)c1ccccn1)c1cn(C)nc1C(F)F (stereo not shown) [Compound 325] | 2.39^[a] |
| CCOC(=O)C(C#N)=C(NC(C)c1nccs1)c1cn(C)nc1C(F)F (stereo not shown) [Compound 326] | 2.44^[a] |
| COCCNC(=O)C(C#N)=C(NC(C)c1nccs1)c1cccnc1Cl (stereo not shown) [Compound 327] | 1.93^[a] |
| CCNC(=O)C(C#N)=C(NC(C)c1nccs1)c1cccnc1Cl (stereo not shown) [Compound 328] | 2.07 |
| CCOC(=O)C(C#N)=C(NC(C)c1ncccn1)c1cccnc1Cl (stereo not shown) [Compound 329] | 2.13^[a] |
| CCOC(=O)C(C#N)=C(NC(C)c1ccncn1)c1cccnc1Cl (stereo not shown) [Compound 330] | 2.01^[a] |

More lines, now with the values ahead:

| Log P | SMILES |
| --- | --- |
| 3.76^[a] | CCOC(=O)/C(C#N)=C(\NC(C)c1nc(C)c(C)s1)c1sccc1Cl (stereo not shown) [Compound 150] |
| 3.8^[a] | CCOC(=O)/C(C#N)=C(\NC(C)Cc1c[nH]c2ccccc12)c1sccc1Cl (stereo not shown) [Compound 151] |
| 2.63^[a] | CCOC(=O)/C(C#N)=C(\NCc1nccs1)c1sccc1Cl [Compound 153] |
| 2.37^[a] | CCOC(=O)C(C#N)=C(NCc1ccccn1)c1c(C(F)F)nn(C)c1Cl [Compound 155] |
| 2.56^[a] | CCOC(=O)C(C#N)=C(NCc1ccccn1)c1sccc1Cl [Compound 159] |
| 2.68^[a] | CCOC(=O)C(C#N)=C(NCc1nccs1)c1ccsc1I [Compound 161] |
| 2.56^[a] | CCOC(=O)C(C#N)=C(NCc1ccccn1)c1ccsc1I [Compound 166] |
| 3.53^[a] | CCOC(=O)C(C#N)=C(NCc1nc2ccccc2s1)c1sccc1Br [Compound 170] |
| 3.37^[a] | CCOC(=O)C(C#N)=C(NCc1nc(C(F)(F)F)cs1)c1sccc1Br [Compound 171] |
| 3.11^[a] | CCOC(=O)C(C#N)=C(NCc1nc(C)cs1)c1sccc1C(F)(F)F [Compound 175] |
| 3.67^[a] | CCOC(=O)C(C#N)=C(NCc1nc2ccccc2s1)c1sccc1C(F)(F)F [Compound 176] |
| 3.51^[a] | CCOC(=O)C(C#N)=C(NCc1nc(C(F)(F)F)cs1)c1sccc1C(F)(F)F [Compound 177] |
| 2.3^[a] | CCOC(=O)C(C#N)=C(NCc1nc(C)cs1)c1cn(C)nc1C(F)F [Compound 189] |
| 2.82^[a] | CCOC(=O)C(C#N)=C(NCc1nc2ccccc2s1)c1cn(C)nc1C(F)F [Compound 191] |
| 2.9^[a] | CCOC(=O)C(C#N)=C(NCc1nc(C)cs1)c1sc(C)nc1C(F)(F)F [Compound 195] |
| 3.48^[a] | CCOC(=O)C(C#N)=C(NCc1nc2ccccc2s1)c1sc(C)nc1C(F)(F)F [Compound 197] |
| 3.04^[a] | CCOC(=O)C(C#N)=C(NCc1ccc(F)cn1)c1sccc1Br [Compound 200] |
| 3.19^[a] | CCOC(=O)C(C#N)=C(NCc1ccc(F)cn1)c1sccc1C(F)(F)F [Compound 201] |
| 2.33^[a] | CCOC(=O)C(C#N)=C(NCc1ccc(F)cn1)c1cn(C)nc1C(F)F [Compound 203] |

| Log P | SMILES |
| --- | --- |
| 2.98^[a] | CCOC(=O)C(C#N)=C(NCc1ccc(F)cn1)c1sc(C)nc1C(F)(F)F [Compound 204] |
| 3.02^[a] | CCOC(=O)C(C#N)=C(NC(C)c1nccs1)c1nc(Cl)ccc1Cl (stereo not shown) [Compound 208] |
| 3.04^[a] | CCOC(=O)C(C#N)=C(NCc1ncc(C)s1)c1sccc1Br [Compound 220] |
| 2.6^[a] | CCOC(=O)C(C#N)=C(NCc1nccs1)c1nc(Cl)ccc1Cl [Compound 226] |
| 2.68^[a] | CCOC(=O)C(C#N)=C(NCc1nccs1)c1cnc(Cl)cc1Cl [Compound 227] |
| 2.7^[a] | CCOC(=O)C(C#N)=C(NCc1nccs1)c1ncc(Cl)cc1Cl [Compound 228] |
| 2.94^[a] | CCOC(=O)C(C#N)=C(NCc1nc(C)cs1)c1ccsc1Br [Compound 246] |
| 3.55^[a] | CCOC(=O)C(C#N)=C(NCc1nc2ccccc2s1)c1ccsc1Br [Compound 248] |
| 3.42^[a] | CCOC(=O)C(C#N)=C(NCc1nc(C(F)(F)F)cs1)c1ccsc1Br [Compound 249] |
| 3.04^[a] | CCOC(=O)C(C#N)=C(NCc1ccc(F)cn1)c1ccsc1Br [Compound 251] |
| 2.4^[a] | CCOC(=O)C(C#N)=C(NCc1nccs1)c1cnccc1C(F)(F)F [Compound 272] |
| 1.9^[a] | CCOC(=O)C(C#N)=C(Nc1cccnc1O)c1cccnc1Cl [Compound 286] |
| 1.45^[a] | CCOC(=O)C(C#N)=C(Nc1ccncc1C)c1cccnc1Cl [Compound 293] |
| 3.2^[a] | CCOC(=O)C(C#N)=C(NC(C)c1nccs1)c1c(C(F)(F)F)nn(C)c1Cl (stereo not shown) [Compound 311] |
| 3.63^[a] | CCOC(=O)C(C#N)=C(NCc1csc(-c2ccccc2)n1)c1cccnc1Cl [Compound 319] |
| 1.64^[a] | CCOC(=O)C(C#N)=C(NC(C)Cc1ccncc1)c1cccnc1Cl (stereo not shown) [Compound 320] |
| 3.13^[a] | CCOC(=O)C(C#N)=C(NCc1ccc2ccccc2n1)c1cccnc1Cl [Compound 323] |
| 2.57^[a] | CCOC(=O)C(C#N)=C(NCC(C)c1nccs1)c1cccnc1Cl (stereo not shown) [Compound 331] |

same assay, conditions: pH 7.5

| SMILES | Log P |
| --- | --- |
| CCOC(=O)C(C#N)=C(NC(C)c1nc(C(=O)OCC)cs1)c1cccnc1Cl (stereo not shown) [Compound 241] | 2.7 |
| CCOC(=O)C(C#N)=C(NC(C)c1nc(C(=O)O)cs1)c1cccnc1Cl (stereo not shown) [Compound 244] | 1.1 |
| CCNC(=O)C(C#N)=C(NC(C)c1nccs1)c1cccnc1Cl (stereo not shown) [Compound 328] | 2.05 |
